Assay results from article PMC7932537, “Quantitative profiling of protease specificity” (PLoS Computational Biology, 2021).

Columns and labels:
MMP-9 [1] = experiment: Substrate phage display with NGS: relative probability (RP) of P3-P1' tetramer clusters; assay type: biochemical, human; settings: MMP9; RP of the substrate's P3-P1' tetramer, substrate phage display with NGS;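 further: ratio of tetramer probability after protease selection to that in naive phage library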
MMP-2 = molecular target: T1, MMP-2 (Homo sapiens, UniProt P08253); experiment: K(obs) of individual phage substrates (set of 1369); assay type: biochemical; settings: MMP2; individual phage substrate from the set of 1369 peptides; hyphen in the sequence marks the cleavage position
T1 sequence (P08253 110-660): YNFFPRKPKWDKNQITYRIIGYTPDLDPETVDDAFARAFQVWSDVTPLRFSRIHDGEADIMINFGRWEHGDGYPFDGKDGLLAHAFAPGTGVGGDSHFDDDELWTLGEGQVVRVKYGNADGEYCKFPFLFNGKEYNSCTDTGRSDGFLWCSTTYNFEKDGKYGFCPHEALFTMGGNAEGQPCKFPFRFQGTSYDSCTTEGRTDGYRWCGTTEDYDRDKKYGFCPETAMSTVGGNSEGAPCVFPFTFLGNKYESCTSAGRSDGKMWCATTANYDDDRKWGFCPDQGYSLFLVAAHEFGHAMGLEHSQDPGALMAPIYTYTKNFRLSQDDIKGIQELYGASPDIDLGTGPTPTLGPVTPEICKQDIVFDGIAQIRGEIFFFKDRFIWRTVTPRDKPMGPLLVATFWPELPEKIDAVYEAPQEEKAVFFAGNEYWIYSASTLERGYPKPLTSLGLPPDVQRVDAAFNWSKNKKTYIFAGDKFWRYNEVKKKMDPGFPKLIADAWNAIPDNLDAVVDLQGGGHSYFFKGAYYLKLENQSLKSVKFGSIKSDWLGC

MMP-9 [2] = molecular target: MMP-9 (Homo sapiens, UniProt P14780); experiment: as above; assay type: biochemical; settings: MMP9; individual phage substrate of the set of 1369 peptides; dash in sequence marks cleavage position
MMP-9 (Homo sapiens, UniProt P14780), sequence (P14780 94-707): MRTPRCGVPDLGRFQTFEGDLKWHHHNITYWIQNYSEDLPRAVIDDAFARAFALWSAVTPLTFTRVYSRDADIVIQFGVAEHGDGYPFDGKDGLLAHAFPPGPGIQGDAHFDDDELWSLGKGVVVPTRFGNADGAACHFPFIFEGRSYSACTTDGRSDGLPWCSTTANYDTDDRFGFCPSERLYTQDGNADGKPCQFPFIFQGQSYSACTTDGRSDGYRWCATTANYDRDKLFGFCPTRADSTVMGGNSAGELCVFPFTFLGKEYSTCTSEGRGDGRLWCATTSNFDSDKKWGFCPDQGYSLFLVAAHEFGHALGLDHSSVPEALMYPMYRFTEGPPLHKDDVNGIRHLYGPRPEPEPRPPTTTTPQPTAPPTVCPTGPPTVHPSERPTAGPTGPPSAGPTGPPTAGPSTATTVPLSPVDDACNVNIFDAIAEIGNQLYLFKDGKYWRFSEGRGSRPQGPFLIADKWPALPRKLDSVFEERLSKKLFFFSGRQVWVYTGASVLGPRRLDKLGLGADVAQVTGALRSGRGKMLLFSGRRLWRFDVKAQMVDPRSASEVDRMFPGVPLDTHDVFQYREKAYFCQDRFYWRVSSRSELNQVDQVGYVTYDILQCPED

Substance | Kobs (MMP-2) | Kobs (MMP-9 [2]) | relative probability (RP) (MMP-9 [1])
GRPLN-LSTAS | 12792.1 M⁻¹ s⁻¹ | 12792.1 M⁻¹ s⁻¹ | 48.0943
SGVRA-IRQTA | 3253.29 M⁻¹ s⁻¹ | 12792.1 M⁻¹ s⁻¹ | 39.7636
SGPSG-WTATA | 7815.03 M⁻¹ s⁻¹ | 6131.32 M⁻¹ s⁻¹ | 29.7011
RKLAF-LTASG | 12792.1 M⁻¹ s⁻¹ | 726.013 M⁻¹ s⁻¹ | 0.6348
SGPRS-WTNTA | 5889.62 M⁻¹ s⁻¹ | 5090.5 M⁻¹ s⁻¹ | 40.7744
SGPRS-LKSTA | 12792.1 M⁻¹ s⁻¹ | 12792.1 M⁻¹ s⁻¹ | 44.7764
EGPMR-LTASG | 12792.1 M⁻¹ s⁻¹ | 12792.1 M⁻¹ s⁻¹ | 42.6597
SGPHY-LMMTA | 6396.07 M⁻¹ s⁻¹ | 6688.74 M⁻¹ s⁻¹ | 37.3972
WDIRS-LTASG | 12792.1 M⁻¹ s⁻¹ | 9740.44 M⁻¹ s⁻¹ | 30.8005
GAPAK-LRTAS | 12792.1 M⁻¹ s⁻¹ | 10866.7 M⁻¹ s⁻¹ | 39.5582
RLVNW-MTASG | 3850.82 M⁻¹ s⁻¹ | 2687.73 M⁻¹ s⁻¹ | 19.0749
GLVWN-LWTAS | 1660.66 M⁻¹ s⁻¹ | 8321.48 M⁻¹ s⁻¹ | 38.922
RRPSA-LTASG | 12792.1 M⁻¹ s⁻¹ | 10866.7 M⁻¹ s⁻¹ | 47.6113
QPPHA-FTASG | 12792.1 M⁻¹ s⁻¹ | 12792.1 M⁻¹ s⁻¹ | 39.4048
LVVRA-HTASG | 4082.43 M⁻¹ s⁻¹ | 5461.43 M⁻¹ s⁻¹ | 18.814
GSHAA-LRTAS | 12792.1 M⁻¹ s⁻¹ | 0 M⁻¹ s⁻¹ | 0.9522
TQPSP-FTASG | 12792.1 M⁻¹ s⁻¹ | 9740.44 M⁻¹ s⁻¹ | 37.3217
GRPVN-LTTAS | 12792.1 M⁻¹ s⁻¹ | 12792.1 M⁻¹ s⁻¹ | 46.0636
GRLLA-MHTAS | 2687.73 M⁻¹ s⁻¹ | 1112.44 M⁻¹ s⁻¹ | 12.6533
GVPKN-QMTAS | 4205.91 M⁻¹ s⁻¹ | 7815.03 M⁻¹ s⁻¹ | 35.1259
GGPAP-MWTAS | 2476.66 M⁻¹ s⁻¹ | 5667.28 M⁻¹ s⁻¹ | 45.1106
FQIGS-LTASG | 12792.1 M⁻¹ s⁻¹ | 1465.65 M⁻¹ s⁻¹ | 7.1912
SVLSK-LTASG | 12792.1 M⁻¹ s⁻¹ | 0 M⁻¹ s⁻¹ | 0.5605

Substance | Kobs (MMP-2) | Kobs (MMP-9 [2]) | relative probability (RP) (MMP-9 [1])
HYVRA-HTASG | 10866.7 M⁻¹ s⁻¹ | 4205.91 M⁻¹ s⁻¹ | 18.814
GLARA-LKTAS | 12792.1 M⁻¹ s⁻¹ | 4335.13 M⁻¹ s⁻¹ | 38.5396
SGPRW-LMSTA | 12792.1 M⁻¹ s⁻¹ | 12792.1 M⁻¹ s⁻¹ | 47.776
GFPRA-FRTAS | 12792.1 M⁻¹ s⁻¹ | 7815.03 M⁻¹ s⁻¹ | 44.1248
LKVMN-YTASG | 3637.04 M⁻¹ s⁻¹ | 12792.1 M⁻¹ s⁻¹ | 29.3662
SGPRT-LVVTA | 12792.1 M⁻¹ s⁻¹ | 12792.1 M⁻¹ s⁻¹ | 42.2705
SGPFS-NRATA | 292.668 M⁻¹ s⁻¹ | 2687.73 M⁻¹ s⁻¹ | 1.097
GVPRG-VRTAS | 12792.1 M⁻¹ s⁻¹ | 10866.7 M⁻¹ s⁻¹ | 42.1832
SYPRA-YTASG | 12792.1 M⁻¹ s⁻¹ | 12792.1 M⁻¹ s⁻¹ | 46.2238
RLPKL-LTASG | 1816.46 M⁻¹ s⁻¹ | 6688.74 M⁻¹ s⁻¹ | 35.7561
PKPAR-LTASG | 12792.1 M⁻¹ s⁻¹ | 12792.1 M⁻¹ s⁻¹ | 40.1634
SGPRS-HRVTA | 3637.04 M⁻¹ s⁻¹ | 3253.29 M⁻¹ s⁻¹ | 23.1314
KFPAS-LTASG | 12792.1 M⁻¹ s⁻¹ | 12792.1 M⁻¹ s⁻¹ | 46.2982
GFVFE-LRTAS | 5889.62 M⁻¹ s⁻¹ | 9740.44 M⁻¹ s⁻¹ | 20.3412
WRPFS-YTASG | 12792.1 M⁻¹ s⁻¹ | 12792.1 M⁻¹ s⁻¹ | 43.4281
GGPST-LTASG | 9740.44 M⁻¹ s⁻¹ | 4613.14 M⁻¹ s⁻¹ | 36.3405
KSPTG-LTASG | 10866.7 M⁻¹ s⁻¹ | 8321.48 M⁻¹ s⁻¹ | 39.8897
PSLGQ-LTASG | 12792.1 M⁻¹ s⁻¹ | 56.119 M⁻¹ s⁻¹ | 2.507
EAIGR-LTASG | 12792.1 M⁻¹ s⁻¹ | 517.582 M⁻¹ s⁻¹ | 4.541
SGVRG-LFTTA | 6131.32 M⁻¹ s⁻¹ | 12792.1 M⁻¹ s⁻¹ | 42.3063
IGVRQ-LTASG | 3536.02 M⁻¹ s⁻¹ | 12792.1 M⁻¹ s⁻¹ | 23.9228
SRPVY-LTASG | 12792.1 M⁻¹ s⁻¹ | 12792.1 M⁻¹ s⁻¹ | 32.5397
HMPLG-LTASG | 12792.1 M⁻¹ s⁻¹ | 12792.1 M⁻¹ s⁻¹ | 48.9856

Now from value to substance, other results behind:

Kobs (MMP-2) | Kobs (MMP-9 [2]) | Substance | relative probability (RP) (MMP-9 [1])
12792.1 M⁻¹ s⁻¹ | 5090.5 M⁻¹ s⁻¹ | IFPAN-HTASG | 10.2001
8321.48 M⁻¹ s⁻¹ | 12792.1 M⁻¹ s⁻¹ | VMPSG-FTASG | 36.6478
12792.1 M⁻¹ s⁻¹ | 12792.1 M⁻¹ s⁻¹ | KAPAH-LTASG | 44.1453
4205.91 M⁻¹ s⁻¹ | 12792.1 M⁻¹ s⁻¹ | SGPKL-LYGTA | 35.7561
12792.1 M⁻¹ s⁻¹ | 12792.1 M⁻¹ s⁻¹ | LAPRY-WTASG | 27.5973
2476.66 M⁻¹ s⁻¹ | 9740.44 M⁻¹ s⁻¹ | SGWRA-YTGTA | 29.3104
6396.07 M⁻¹ s⁻¹ | 3253.29 M⁻¹ s⁻¹ | GMLRA-MHTAS | 36.706
1112.44 M⁻¹ s⁻¹ | 4613.14 M⁻¹ s⁻¹ | WGTLA-LTASG | 8.919
9740.44 M⁻¹ s⁻¹ | 12792.1 M⁻¹ s⁻¹ | SGPKG-MRMTA | 48.8441
6396.07 M⁻¹ s⁻¹ | 12792.1 M⁻¹ s⁻¹ | GVPRA-VTASG | 40.8515
12792.1 M⁻¹ s⁻¹ | 8321.48 M⁻¹ s⁻¹ | GRPSF-LKTAS | 37.0272
12792.1 M⁻¹ s⁻¹ | 12792.1 M⁻¹ s⁻¹ | QRPMD-LTASG | 44.1549
12792.1 M⁻¹ s⁻¹ | 1513.13 M⁻¹ s⁻¹ | GHIAW-FTASG | 7.9655
12792.1 M⁻¹ s⁻¹ | 12792.1 M⁻¹ s⁻¹ | GMPRS-YITAS | 44.546
10866.7 M⁻¹ s⁻¹ | 4763.33 M⁻¹ s⁻¹ | MFVRK-LTASG | 0
1196.62 M⁻¹ s⁻¹ | 1981.53 M⁻¹ s⁻¹ | RMPRQ-VTASG | 25.107
12792.1 M⁻¹ s⁻¹ | 0 M⁻¹ s⁻¹ | GYFAN-LTASG | 0.8121
4335.13 M⁻¹ s⁻¹ | 0 M⁻¹ s⁻¹ | RDMSY-LTASG | 0.7522
12792.1 M⁻¹ s⁻¹ | 3079.62 M⁻¹ s⁻¹ | GRPAG-VKTAS | 31.0803
2476.66 M⁻¹ s⁻¹ | 8321.48 M⁻¹ s⁻¹ | VFPQG-MTASG | 46.1377
12792.1 M⁻¹ s⁻¹ | 12792.1 M⁻¹ s⁻¹ | IAPEF-LTASG | 20.835
12792.1 M⁻¹ s⁻¹ | 12792.1 M⁻¹ s⁻¹ | GVPSK-LTASG | 38.9571
8941.32 M⁻¹ s⁻¹ | 654.784 M⁻¹ s⁻¹ | PSLAE-LTASG | 0.4438
7386.83 M⁻¹ s⁻¹ | 56.119 M⁻¹ s⁻¹ | HKIAL-LTASG | 0.8483
